We go through five molecules from patent publication US6812246B2, “Aminoflavone compounds, compositions, and methods of use thereof” (The United States of America as represented by the …, priority 2000, dated 2004).

For data set [1] the following is noted: Akama et al., cited from earlier work.
For data set [2], the system named is panel of 60 different human tumor cell lines. The data set is described as follows: NCI 60 cell-line human tumor screen (sulforhodamine B, 48 hour incubation). The class given is cell-based. The following applies: FIG. 1B; several human cancer cell lines, particularly breast (MCF7), ovarian (OVCAR-5), renal (CAKI-1), colon (SW-620). The method, then:
The NCI screen consists of a panel of 60 different human tumor cell lines against which compounds are tested over a defined range of concentrations to determine the relative degree of growth inhibition or cytotoxicity against each cell line. The design and operation of the screen is such that for each compound tested, both the absolute and relative sensitivities of individual cell lines comprising the screen are sufficiently reproducible that a characteristic profile or “fingerprint” of cellular response is generated. Compounds that are active in the NCI screen show pronounced differential tumor growth-inhibitory and/or cytotoxic effects to the diverse cell lines comprising the 60 cell-line panel. The degree of differential response between the most and least sensitive lines typically may be relatively small (e.g., 2-10 fold), or occasionally as great as 3-4 orders of magnitude. […]
In the screening assay, each agent is tested over a broad concentration range against every cell line in the panel. […] Test compounds are evaluated at five 10-fold dilutions. […] Optical densities are measured on automated plate readers, followed by computerized data acquisition, processing, storage, and availability for display-and analysis. […]

Data set [3] in a line: Visual solubility evaluation in buffer at fixed concentration of 5 mg/mL. It counts as physicochemical. The following applies: for solubility: aqueous buffer, water solubility determined visually at fixed concentration of 5 mg/mL. As for the experimental part: This Example illustrates the desirable solubility characteristics of the aminoflavone compounds of the present invention. In Table 2 below, the water solubility of compounds 1a-d of Table 1 are set forth at different pH with a citrate or phosphate buffer, as indicated. Solubility was determined visually at a fixed concentration of 5 mg/mL.

Setting [4] is: pH 3, citrate buffer, read-out: Visual solubility, pH 3.
[5] abbreviates: pH 5, citrate buffer, read-out: Visual solubility, pH 5.
Where [6] appears, read: pH 7, phosphate buffer, read-out: Visual solubility, pH 7.
Setting [7] is: pH 3, citrate buffer, 5 mg/mL, visual.

Values after ≈ are worked out from the molar mass of the structure shown. Like-named read-outs stand apart in the source and are kept apart here. Bounds are passed on as bounds.

Turning to `Nc1ccc(-c2cc(=O)c3c(N)c(F)cc(F)c3o2)cc1F` [5,4′-diamino-6,8,3′-trifluoroflavone], the solubility in ethanol in data set [1] (ethanol, J. Med. Chem., at 2067) is reported as 1.2 mg/mL (≈ 3.92 mM). Also, the solubility in water result in data set [1] (water, J. Med. Chem., 41, 2056-2067 (1998)) was “less than 0.2 μg/mL”.
Regarding `Cc1c(F)c(N)c2c(=O)cc(-c3ccc(NC(=O)[C@@H](N)CCCCN)c(F)c3)oc2c1F` [Compound 1a, 5-amino-6,8-difluoro-2-(3-fluoro-4-[(L-lysyl)amino]phenyl]-7-methyl-4H-1-benzopyran-4-one], the “tumor growth-inhibiting activity (GI50 mean-graph)” value in data set [2] is given as “demonstrated tumor growth-inhibiting activity”. For the same molecule, the solubility in data set [3] (setting [4]) was greater than 5000 µg/mL; in data set [3] (setting [5]), less than 5000 µg/mL; in data set [3] (setting [6]) it was less than 5000 µg/mL. The “solubility at pH 3 (text summary of Table 2)” value in data set [3] (setting [7]) was “fully soluble”.
As for `Br.Br.Br.Cc1c(F)c(N)c2c(=O)cc(-c3ccc(NC(=O)C(N)CCCNC(=N)N)c(F)c3)oc2c1F` (stereo not shown) [Compound 1b, 5-amino-2-[4-[[2-amino-5-guanidinopentanoyl]amino]-3-fluorophenyl]-6,8-difluoro-7-methyl-4H-1-benzopyran-4-one, trihydrobromide], the solubility in data set [3] (setting [4]) is greater than 5000 µg/mL; in data set [3] (setting [5]) it was less than 5000 µg/mL; in data set [3] (setting [6]), less than 5000 µg/mL. In data set [3] (setting [7]), the “solubility at pH 3 (text summary of Table 2)” value is listed as “fully soluble”.
For the molecule `Cc1c(F)c(N)c2c(=O)cc(-c3ccc(NC(=O)CN(C)C)c(F)c3)oc2c1F` [Compound 1c, 5-amino-6,8-difluoro-7-methyl-2-[4-(dimethylamino)acetamido-3-fluorophenyl]-4H-1-benzopyran-4-one], the solubility in data set [3] (setting [4]), in data set [3] (setting [5]) and in data set [3] (setting [6]) was less than 5000 µg/mL each time.
For `Cc1c(F)c(NC(=O)CN(C)C)c2c(=O)cc(-c3ccc(NC(=O)CN(C)C)c(F)c3)oc2c1F` [Compound 1d, 6,8-difluoro-7-methyl-5-(dimethylamino)acetamido-2-[4-(dimethylamino)acetamido-3-fluorophenyl]-4H-1-benzopyran-4-one], the solubility in data set [3] (setting [4]) is greater than 5000 µg/mL; in data set [3] (setting [5]) it was greater than 5000 µg/mL; in data set [3] (setting [6]), less than 5000 µg/mL. Also, in data set [3] (setting [7]), the “solubility at pH 3 (text summary of Table 2)” value is listed as “fully soluble”. The “solubility at pH 5 (text summary of Table 2)” value in data set [3] (pH 5, citrate buffer, 5 mg/mL, visual) was “fully soluble”.
